System: drug-resistant C. albicans strains (CCARM 14001, 14004, 14007, and 14020)
Type: cell-based
Conditions: at 256 µM; CCARM 14001, 14004, 14007, 14020; data not shown

OC(Cn1cncn1)(Cn1cncn1)c1ccc(F)cc1F [fluconazole]
antifungal activity against drug-resistant C. albicans strains: inactive

Reference: paper PMC6321124, “Hydrophilic Linear Peptide with Histidine and Lysine Residues as a Key Factor Affecting Antifungal Activity” (International Journal of Molecular Sciences, 2018)
